This is an account of results in paper PMC7567501 (Journal of Enzyme Inhibition and Medicinal Chemistry, 2019).

A value given as a limit tells only on which side of the number the result lay.

One data set concerns SH-SY5Y cells. The data set can be described thus: Dose-response screening for non-toxic concentrations, MTT reduction assay. Type of data set: cell-based, human. Particulars: 10 µM to 40 µM, 25 h. How it is done:
The neuroprotective effect of these new multi-target drugs designed for AD was evaluated using SH-SY5Y cells treated with Aβ1-42 peptides or ascorbate/iron. For each compound we performed a dose-response curve to select a non-toxic concentration (Figure 7).
Figure 7. Dose-response screening to select non-toxic concentrations of TAC-BF hybrids. Cells were treated with varying concentration of TAC-BF conjugates (from 10 μM to 40 μM) for 25 h and cell viability was determined using the MTT reduction assay.
SH-SY5Y human neuroblastoma cell line (ATCC-CRL-2266) is grown in Dulbecco’s modified Eagle’s medium (DMEM), and were obtained from Gibco-Invitrogen (Life Technologies Ltd, UK) with 10% heat inactivated foetal calf serum, containing 50 U/mL penicillin and 50 µg/mL streptomycin, under a humidified atmosphere of 95% air- 5% CO2 at 37 °C. Cells were plated at 0.12 × 10^6 cells/mL for cell viability assay. The tested compounds (18, 19, 20, 21, 23 and 24) were dissolved in DMSO at a concentration of 50 mM and aliquots were stored at −20 °C. We performed a dose-response screening (from 10 µM to 40 µM) in order to choose the highest non-toxic concentration. As a result we selected: 20 µM final concentrations for compounds 18, 19, 20 and 23; 20 µM final concentration for compound 19; 35 µM final concentration for compounds 21 and 24. […] The compounds were added to the cell media 1 h before the incubation with Aβ1-42 or L-ascorbic acid/ferrous sulphate. Aβ1-42 or L-ascorbic acid/ferrous sulphate where incubated alone or with the compound for an additional 24 h. Aβ1-42 was prepared as 276.9 µM stock in sterile water and added to the medium at 2.5 µM final concentration. Ferrous sulphate was freshly prepared as 0.36 M stock in water and added to the medium at 500 µM final concentration. L-Ascorbic Acid was freshly prepared as 80 mM stock in water and added to the medium at 5 mM final concentration. Aβ1-42 was purchased from Bachem (Torrance, CA, USA) and ferrous sulphate and L-ascorbic acid from Sigma Chemical Co (St. Louis, MO, USA).
Cell viability was determined by the MTT (3–(4,5-dimethylthiazol-2-yl)-2,5-diphenyltetrazolium bromide) reduction test. In viable cells, the enzyme succinate dehydrogenase metabolises MTT into a formazan that absorbs light at 570 nm. Following the cell treatment protocol, the medium was aspirated and 0.5 mL MTT (0.5 mg/mL) was added to each well. The plate was then incubated at 37 °C for 1 h 30 min protected from light. At the end of the incubation period, the formazan precipitates were solubilised with 0.5 mL of acidic isopropanol (0.04 M HCl/isopropanol). The absorbance was measured at 570 nm[51]. Cell reduction ability was expressed as a percentage of untreated control cells.
(In general: Formazan colour is commonly taken as a measure of viable cells.)

The nature of data set [1]: Radical scavenging (anti-oxidant) activity, DPPH method. Type of data set: physicochemical. The note with it: DPPH in methanol, 30 min, room temperature. As to the method: A selection of the newly synthesised hybrids was tested for their radical scavenging activity (anti-oxidant activity, EC50), based on their interaction with the 2,2-diphenyl-1-picrylhydrazyl (DPPH) free radical, as previously described.
The anti-oxidant capacity or, more precisely, radical scavenging activity based on the electron and proton donation ability, was evaluated by the DPPH method previously described[29]^,[46]. To a 2.5 mL solution of DPPH (0.002%) in methanol, solutions of each compound were added in different volumes to obtain different concentrations in a 3.5 mL final volume. The samples were incubated for 30 min at room temperature. The absorbance was measured at 517 nm against the corresponding blank (methanol). The antioxidant activity was calculated by Eq. (1)^29. (1) %AA = ((ADPPH−Asample)/ADPPH) × 100
The tests were carried out in triplicate. The compound concentration providing 50% of antioxidant activity (EC50) was obtained by plotting the antioxidant activity against the compound concentration.
(In general: The DPPH test is a chemical assay of radical scavenging.)

The next data set has as its target T1, Aβ1-42 (Homo sapiens, UniProt P05067).
T1 construct: Amyloid β-peptide (1–42), Aβ1-42, was purchased from GeneCust; purchased GeneCust
The data set can be described thus: Inhibition of Cu2+-induced Aβ1-42 aggregation, thioflavin T fluorescence. The format is biochemical. The note with it: Aβ42 aggregation with copper (40 µM), inhibitor 80 µM, ThT fluorescence; for inhibition at 80 µM: read-out: Aβ aggregation inhibition, Cu-ind Aβ aggr. The text has this: The Aβ amyloid plaques are one of the main hallmarks of AD and they result from over production and aggregation of β-amyloid peptide, which can accumulate outside the neurons, by self-mediated or Cu^2+-induced process, interfering with the synaptic impairment, neurotransmission and memory. Therefore, anti-AD drugs have been designed aimed to disrupt and disaggregate the Aβ’s fibrils into monomers, obtaining non-toxic forms of β-secretase’s products. To assess the effect of these new hybrids in the inhibition of amyloid peptide aggregation, a selection of the compounds was in vitro assayed, based on the thioflavin T (ThT) method. Indeed ThT is a histochemical dye able to create ionic or hydrophobic interactions with the peptide β–sheets, the predominant secondary structure of the amyloid fibrils in aqueous solutions[36]. This binding interactions can be monitored by fluorimetry since the presence of ThT-fibrils increases the absorbance and the emission of the ThT dye, and induces red shifts on the absorbance (from 385 to 446 nm) and emission peaks (from 445 to 485 nm)[14]. All the measurements were performed after incubation of the self-mediated and Cu^2+-induced Aβ aggregates in the presence/absence of the herein studied compounds. […]. […] This may be rationalised on the basis of their copper chelating capacity, as previously shown by other metal chelating compounds[14]^,[38]. Furthermore, despite some exceptions (e.g. 20 and 24), the increase in linker length and the chloro TAC substitution induce some small negative effects in the inhibition of Aβ self-aggregation.
For the study of the β-amyloid (Aβ) aggregation, the ThT fluorescence assay was performed using a Varian Cary Eclipse fluorimeter at the following wavelengths: excitation (446 nm) and emission (485 nm). Amyloid β-peptide (1–42), Aβ1-42, was purchased from GeneCust as a lyophilised powder stored at −20 °C. TEM assays were performed with a Hitachi H8100 transmission electron microscope with a LaB6 filament (200 kV, 10000–20000 × magnification) at MicroLab/IST.
Among all the methods to measure the aggregation of Aβ1-42, the assay based on Thioflavin T (ThT) is the standard procedure based on the fluorescence of this dye[49]^,[50]. This test is performed with Aβ1-42 peptide previously prepared by dissolving it in 1,1,1,3,3,3–hexafluoro-2-propanol (HFIP), an organic solvent useful to solubilise and monomerize the β–sheet protein aggregates and reserve them in the fridge. Films are re-dissolved in an Eppendorf tube with a fresh solution of a mixture of CH3CN/Na2CO3/NaOH, to have a stable stock solution, and afterwards, added to an optimised fibrillation phosphate buffer. […] After 5-min incubation with the dye, the ThT fluorescence was measured at 446 nm (excitation) and 485 nm (emission).

T1 sequence (P05067 672-713 limits assumed): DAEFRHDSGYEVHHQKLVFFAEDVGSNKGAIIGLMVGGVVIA

Turning to `COc1cccc2cc(C(=O)NCCCNc3c4c(nc5cc(Cl)ccc35)CCCC4)oc12` [Compound 19, N-(3-((6-chloro-1,2,3,4-tetrahydroacridin-9-yl)amino)propyl)-7-methoxybenzofuran-2-carboxamide], in the data set with SH-SY5Y cells, the “highest non-toxic concentration selected from dose-response screening” value (shortened to “highest non-toxic concentration selected”) is reported as 20 µM.
Take `COc1cccc2cc(C(=O)NCCCCNc3c4c(nc5cc(Cl)ccc35)CCCC4)oc12` [Compound 20, N-(4-((6-chloro-1,2,3,4-tetrahydroacridin-9-yl)amino)butyl)-7-methoxybenzofuran-2-carboxamide]: in data set [1], the EC50 – broadly, the concentration at which the effect is half-maximal – was more than 1000 µM. In the data set with SH-SY5Y cells, the “highest non-toxic concentration selected” value came to 20 µM.
For the compound `O=C(NCCCNc1c2c(nc3ccccc13)CCCC2)c1cc2cccc(O)c2o1` [Compound 21, 7-Hydroxy-N-(3-((1,2,3,4-tetrahydroacridin-9-yl)amino)propyl)benzofuran-2-carboxamide], on Aβ1-42, the inhibition (as a rule, the percentage by which the read-out fell short of the control) at 80 µM worked out at 50.1%. The compound also displayed an EC50 in data set [1] of 480 µM. Besides, the “highest non-toxic concentration selected” value with SH-SY5Y cells was 35 µM.
Take `O=C(NCCCNc1c2c(nc3cc(Cl)ccc13)CCCC2)c1cc2cccc(O)c2o1` [Compound 23, N-(3-((6-chloro-1,2,3,4-tetrahydroacridin-9-yl)amino)propyl)-7-hydroxybenzofuran-2-carboxamide]: on Aβ1-42, the “Aβ aggregation inhibition, Cu-ind Aβ aggr” value came to 52.5%. Moreover, in the data set on SH-SY5Y cells, the “highest non-toxic concentration selected” value is reported as 20 µM.
Turning to `O=C(NCCCCNc1c2c(nc3cc(Cl)ccc13)CCCC2)c1cc2cccc(O)c2o1` [Compound 24, N-(4-((6-chloro-1,2,3,4-tetrahydroacridin-9-yl)amino)butyl)-7-hydroxybenzofuran-2-carboxamide], the inhibition at 80 µM at Aβ1-42 is 53.4%. The compound further came in with a half-maximal effective concentration (EC50) in data set [1] of 434 µM. For the same compound, the “highest non-toxic concentration selected” value in the data set with SH-SY5Y cells is given as 35 µM.
